Assay results reported in patent US6737383B1, “Herbicidal oxadiazolidines” (priority 1999, dated 2004).

What was measured:
[1] = system: smallflower flatsedge; assay: Test B flood test smallflower flatsedge; format: in vivo, Cyperus difformis
Procedure, shortened: (§1)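 Flood test on plants grown to the 2-leaf stage; treated plants kept in greenhouse twelve to sixteen days, then visually rated against controls on a 0 (no effect) to 10 (complete control) scale.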

[2] = system: morningglory; assay: Test B pre/postemergence morningglory; format: in vivo, Ipomoea hederacea; details: for Morningglory plant response rating: scale of 0 to 10 where 0 is no effect and 10 is complete control
Procedure, shortened: (§2)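 Herbicidal effect was estimated by eye on a ten-point control scale after plants spent twelve to sixteen days in a greenhouse following soil or foliar treatment. Foliar sprays targeted plants at one to four leaves; all doses were formulated in a non-phytotoxic solvent with surfactant.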

[3] = system: giant foxtail; assay: Test B pre/postemergence giant foxtail; format: in vivo, Setaria faberii; details: for Giant foxtail plant response rating: scale of 0 to 10 where 0 is no effect and 10 is complete control
Procedure, shortened: as §2

[4] = system: purple nutsedge; assay: Test B pre/postemergence purple nutsedge; format: in vivo, Cyperus rotundus; details: for Nutsedge plant response rating: scale of 0 to 10 where 0 is no effect and 10 is complete control
Procedure, shortened: as §2

[5] = system: bamyardgrass; assay: Test B flood test barnyardgrass; format: in vivo, Echinochloa crus-galli
Procedure, shortened: as §1

[6] = system: surinam grass; assay: Test B pre/postemergence surinam grass; format: in vivo, Brachiaria decumbens
Procedure, shortened: as §2

[7] = system: velvetleaf; assay: Test B pre/postemergence velvetleaf; format: in vivo, Abutilon theophrasti; details: for Velvetleaf plant response rating: scale of 0 to 10 where 0 is no effect and 10 is complete control
Procedure, shortened: as §2

[8] = system: blackgrass; assay: Test B pre/postemergence blackgrass; format: in vivo, Alopecurus myosuroides
Procedure, shortened: as §2

[9] = system: bedstraw; assay: Test B pre/postemergence bedstraw; format: in vivo, Galium aparine
Procedure, shortened: as §2

[10] = system: cocklebur; assay: Test B pre/postemergence cocklebur; format: in vivo, Xanthium strumarium; details: for Cocklebur plant response rating: scale of 0 to 10 where 0 is no effect and 10 is complete control
Procedure, shortened: as §2

[11] = system: duck salad; assay: Test B flood test duck salad; format: in vivo, Heteranthera limosa
Procedure, shortened: as §1

[12] = system: pigweed; assay: Test B pre/postemergence pigweed; format: in vivo, Amaranthus retroflexus; details: for Redroot pigweed plant response rating: scale of 0 to 10 where 0 is no effect and 10 is complete control
Procedure, shortened: as §2

[13] = system: wheat; assay: Test B pre/postemergence wheat; format: in vivo, Triticum aestivum; details: for Wheat plant response rating: scale of 0 to 10 where 0 is no effect and 10 is complete control
Procedure, shortened: as §2

[14] = system: rape; assay: Test B pre/postemergence rape; format: in vivo, Brassica napus; details: for Rape plant response rating: scale of 0 to 10 where 0 is no effect and 10 is complete control
Procedure, shortened: as §2

[15] = system: soybean; assay: Test B pre/postemergence soybean; format: in vivo, Glycine max; details: for Soybean plant response rating: scale of 0 to 10 where 0 is no effect and 10 is complete control
Procedure, shortened: as §2

[16] = system: wild oat; assay: Test B pre/postemergence wild oat; format: in vivo, Avena fatua; details: for Wild oats plant response rating: scale of 0 to 10 where 0 is no effect and 10 is complete control
Procedure, shortened: as §2

[17] = Rate 62 g/ha, headed Pre-emergence (flood test species), scale 0 to 10 (0 no effect, 10 complete control)
[18] = Rate 125 g/ha, Pre-emergence, flood test species, scale 0 to 10 where 0 is no effect and 10 is complete control
[19] = Rate 250 g/ha, Pre-emergence, flood-test species, scale 0 to 10, 0 is no effect, 10 is complete control
[20] = Rate 500 g/ha, Pre-emergence, flood test species, scale 0 to 10 (0 no effect, 10 complete control)
[21] = Postemergence, Rate 125 g/ha, scale 0 to 10, 0 is no effect, 10 is complete control
[22] = Rate 500 g/ha, Postemergence, scale 0 to 10, 0 no effect, 10 complete control
[23] = Preemergence, Rate 62 g/ha, scale of 0 to 10 where 0 is no effect and 10 is complete control
[24] = Preemergence, Rate 250 g/ha, scale of 0 to 10 where 0 is no effect and 10 is complete control
[25] = Preemergence, Rate 500 g/ha, scale of 0 to 10 where 0 is no effect and 10 is complete control
[26] = Rate 62 g/ha, Postemergence, scale of 0 to 10 where 0 is no effect and 10 is complete control
[27] = Rate 250 g/ha, Postemergence, scale of 0 to 10 where 0 is no effect and 10 is complete control

## CC(C)N(C(=O)n1oc(=O)n(C2CCCCCC2)c1=O)c1ccc(F)cc1 [Compound 340]
[1]; [17]
  S. Flatsedge plant response rating: 0
[1]; [18]
  S. Flatsedge plant response rating: 0
[1]; [19]
  S. Flatsedge plant response rating: 2
[1]; [20]
  S. Flatsedge plant response rating: 9
[2]; [21]
  Plant response rating, Morningglory: 7
[2]; Preemergence, Rate 62 g/ha
  Morningglory plant response rating: 0
[2]; Preemergence, Rate 125 g/ha
  Morningglory plant response rating (0 to 10 scale): 0
[2]; Preemergence, Rate 250 g/ha
  Morningglory plant response rating: 0
[2]; Preemergence, Rate 500 g/ha
  Morningglory plant response rating: 0
[2]; Rate 62 g/ha, Postemergence
  Morningglory plant response rating: 2
[2]; [22]
  Plant response rating, Morningglory: 10
[3]; [21]
  Plant response rating, Giant foxtail: 0
[3]; Preemergence, Rate 62 g/ha
  Giant foxtail plant response rating: 8
[3]; Preemergence, Rate 125 g/ha
  Giant foxtail plant response rating (0 to 10 scale): 10
[3]; Preemergence, Rate 250 g/ha
  Giant foxtail plant response rating: 10
[3]; Preemergence, Rate 500 g/ha
  Giant foxtail plant response rating: 10
[3]; Rate 62 g/ha, Postemergence
  Giant foxtail plant response rating: 0
[3]; [22]
  Plant response rating, Giant foxtail: 6
[4]; [21]
  Plant response rating, Nutsedge: 0
[4]; Preemergence, Rate 62 g/ha
  Nutsedge plant response rating: 0
[4]; Preemergence, Rate 125 g/ha
  Nutsedge plant response rating (0 to 10 scale): 0
[4]; Preemergence, Rate 250 g/ha
  Nutsedge plant response rating: 0
[4]; Preemergence, Rate 500 g/ha
  Nutsedge plant response rating: 0
[4]; Rate 62 g/ha, Postemergence
  Nutsedge plant response rating: 0
[4]; [22]
  Plant response rating, Nutsedge: 0
[5]; [17]
  Barnyardgrass plant response rating: 7
[5]; [18]
  Barnyardgrass plant response rating: 6
[5]; [19]
  Barnyardgrass plant response rating: 10
[5]; [20]
  Barnyardgrass plant response rating: 9
[6]; [21]
  Plant response rating, B. signalgrass: 0
[6]; [23]
  B. signalgrass plant response rating: 0
[6]; Preemergence, Rate 125 g/ha
  B. signalgrass plant response rating (0 to 10 scale, 0 is no effect, 10 is complete control): 0
[6]; [24]
  B. signalgrass plant response rating: 1
[6]; [25]
  B. signalgrass plant response rating: 2
[6]; [26]
  B. signalgrass plant response rating: 0
[6]; [27]
  Plant response rating, B. signalgrass: 0
[6]; [22]
  Plant response rating, B. signalgrass: 0
[7]; [21]
  Plant response rating, Velvetleaf: 0
[7]; Preemergence, Rate 62 g/ha
  Velvetleaf plant response rating: 0
[7]; Preemergence, Rate 125 g/ha
  Velvetleaf plant response rating (0 to 10 scale): 0
[7]; Preemergence, Rate 250 g/ha
  Velvetleaf plant response rating: 0
[7]; Preemergence, Rate 500 g/ha
  Velvetleaf plant response rating: 2
[7]; Rate 62 g/ha, Postemergence
  Velvetleaf plant response rating: 0
[7]; [22]
  Plant response rating, Velvetleaf: 3
[8]; [21]
  Plant response rating, Blackgrass: 0
[8]; [23]
  Blackgrass plant response rating: 0
[8]; Preemergence, Rate 125 g/ha
  Blackgrass plant response rating (0 to 10 scale): 2
[8]; [24]
  Blackgrass plant response rating: 3
[8]; [25]
  Blackgrass plant response rating: 8
[8]; [26]
  Blackgrass plant response rating: 0
[8]; [27]
  Plant response rating, Blackgrass: 3
[8]; [22]
  Plant response rating, Blackgrass: 8
[9]; [21]
  Plant response rating, Bedstraw: 7
[9]; [23]
  Bedstraw plant response rating: 0
[9]; Preemergence, Rate 125 g/ha
  Bedstraw plant response rating (0 to 10 scale): 0
[9]; [25]
  Bedstraw plant response rating: 5
[9]; [26]
  Bedstraw plant response rating: 3
[9]; [27]
  Plant response rating, Bedstraw: 7
[9]; [22]
  Plant response rating, Bedstraw: 8
[10]; [21]
  Plant response rating, Cocklebur: 0
[10]; Preemergence, Rate 62 g/ha
  Cocklebur plant response rating: 0
[10]; Preemergence, Rate 125 g/ha
  Cocklebur plant response rating (0 to 10 scale): 0
[10]; Preemergence, Rate 250 g/ha
  Cocklebur plant response rating: 0
[10]; Preemergence, Rate 500 g/ha
  Cocklebur plant response rating: 0
[10]; Rate 62 g/ha, Postemergence
  Cocklebur plant response rating: 0
[10]; [22]
  Plant response rating, Cocklebur: 0
[11]; [17]
  Ducksalad plant response rating: 0
[11]; [18]
  Ducksalad plant response rating: 0
[11]; [19]
  Ducksalad plant response rating: 0
[11]; [20]
  Ducksalad plant response rating: 5
[12]; [21]
  Plant response rating, Redroot pigweed: 4
[12]; Preemergence, Rate 62 g/ha
  Redroot pigweed plant response rating: 0
[12]; Preemergence, Rate 125 g/ha
  Redroot pigweed plant response rating (0 to 10 scale): 0
[12]; Preemergence, Rate 250 g/ha
  Redroot pigweed plant response rating: 3
[12]; Preemergence, Rate 500 g/ha
  Redroot pigweed plant response rating: 4
[12]; Rate 62 g/ha, Postemergence
  Redroot pigweed plant response rating: 2
[13]; [21]
  Plant response rating, Wheat: 0
[13]; Preemergence, Rate 62 g/ha
  Wheat plant response rating: 0
[13]; Preemergence, Rate 125 g/ha
  Wheat plant response rating (0 to 10 scale): 0
[13]; Preemergence, Rate 250 g/ha
  Wheat plant response rating: 0
[13]; Preemergence, Rate 500 g/ha
  Wheat plant response rating: 0
[13]; Rate 62 g/ha, Postemergence
  Wheat plant response rating: 0
[13]; [22]
  Plant response rating, Wheat: 0
[14]; [21]
  Plant response rating, Rape: 2
[14]; Preemergence, Rate 62 g/ha
  Rape plant response rating: 0
[14]; Preemergence, Rate 125 g/ha
  Rape plant response rating (0 to 10 scale): 0
[14]; Preemergence, Rate 250 g/ha
  Rape plant response rating: 0
[14]; Preemergence, Rate 500 g/ha
  Rape plant response rating: 0
[14]; Rate 62 g/ha, Postemergence
  Rape plant response rating: 2
[14]; [22]
  Plant response rating, Rape: 6
[15]; [21]
  Plant response rating, Soybean: 2
[15]; Preemergence, Rate 62 g/ha
  Soybean plant response rating: 0
[15]; Preemergence, Rate 125 g/ha
  Soybean plant response rating (0 to 10 scale): 0
[15]; Preemergence, Rate 250 g/ha
  Soybean plant response rating: 0
[15]; Preemergence, Rate 500 g/ha
  Soybean plant response rating: 0
[15]; Rate 62 g/ha, Postemergence
  Soybean plant response rating: 1
[15]; [22]
  Plant response rating, Soybean: 3
[16]; [21]
  Plant response rating, Wild oats: 0
[16]; Preemergence, Rate 62 g/ha
  Wild oats plant response rating: 0
[16]; Preemergence, Rate 125 g/ha
  Wild oats plant response rating (0 to 10 scale): 0
[16]; Preemergence, Rate 250 g/ha
  Wild oats plant response rating: 2
[16]; Preemergence, Rate 500 g/ha
  Wild oats plant response rating: 3
[16]; Rate 62 g/ha, Postemergence
  Wild oats plant response rating: 0
[16]; [22]
  Plant response rating, Wild oats: 0
